Assay results from patent US10876089B2, “Apparatus and method for high-fidelity podocyte cultivation” (priority 2016, dated 2020).
Entries after “also recorded” stand apart in the source; their conditions may differ.

Columns and labels:
Assay type in all cases: cell-based
E11 murine podocytes = experiment: Immunofluorescent staining (F-actin, nephrin, WGA) of differentiated podocytes; conditions: 100 μM PAN vs without PAN; microcurvature surface
Experimental: For immunofluorescent staining, cells were first washed with Dulbecco's phosphate buffered saline (DPBS, Life Technologies) and then fixed in 4% paraformaldehyde solution for 15 min at room temperature, followed by another wash with DPBS. For F-actin staining, the cells were permeated and blocked in 10% (v/v) FBS and 0.25% Triton X100 in DPBS for 1 hour. Next, the cells were incubated with Alexa Fluor® 660 phalloidin (Thermo Fisher Scientific) for 1 hour. For Nephrin and Wheat Germ Agglutinin (WGA) staining, the cells were blocked in 10% normal goat serum for 1 hour. Next, the cells were incubated in primary anti-Nephrin antibody (Thermo Fisher Scientific) overnight at 4° C. followed by incubation with FITC goat anti-rabbit IgG (1:200 dilutions, Abcam, UK) for 1 hour at room temperature. Lastly, the cells were incubated with Rhodamine-WGA (1:1000 dilution, Vector Laboratories, USA) for 10 min at room temperature.
The additional influence of the microcurvature topography is shown by the change from compacted, spindle-like cells to arborized morphologies. This was especially evident in the vehicle-only group.
From immunostaining results, it appeared that cell membrane area and nephrin expression decreased, indicating a possible reduction in cell spreading as a result of the PAN insult. However, the localization of nephrin still consistently appeared on top of the bubbles. […]

[1] = system: murine nephrin gene (NPHS1) in E11 murine podocytes; experiment: PAN stimulation of differentiated podocytes, nephrin gene expression by RT-qPCR; conditions: 17-100 μM PAN for 24 hours (day 8 to 9); microcurvature surface; 15,000 cells/cm^2; (+)ATRA media
Experimental: On day 9, cells were washed with warm, non-supplemented RPMI 1640 basal media prior to lysing and RNA isolation. A High Pure RNA Isolation Kit (Roche) was used according to manufacturer's instructions, using 50 μL of elution buffer for the final step. Each sample from the study consisted of 3 individual wells pooled together, to ensure that a sufficient amount of RNA was being collected. Thus, 9 wells were seeded for each group to generate n=3 samples per condition. Isolated RNA was converted to complementary DNA (cDNA) using the High Capacity cDNA Reverse Transcription Kit (Applied Biosystems, USA) for ensuing PCR applications. RNA solutions were diluted to a final 7.5 ng/μL in a total reaction volume of 60 μL. Real-time PCR was run on the generated cDNA using the TaqMan Gene Expression Assay (Applied Biosystems). cDNA was diluted to 3.33 ng/μL in a volume of 9 μL, for a total of 30 ng cDNA per reaction. […] Expression of murine nephrin gene (NPHS1, Thermo Fisher Scientific) and the housekeeping gene Beta-2-Microglobulin (B2M, Thermo Fisher Scientific) was determined using relative quantification analysis (28), where C57/bl6 mouse whole kidney cDNA was used as a positive control and as a normalizer in calculations. […]

podocyte layer = experiment: Permeability of cells cultured on transwell microcurvature or flat membrane; conditions: treatment by PAN, 15,000 or 50,000 cells/cm^2
Description: One of the important physiological consequences from the disruption of the nephrin adhesion protein is the loss of barrier function from the podocyte slit diaphragm, which leads to abnormal protein levels in urine (e.g. albumin, etc.). The disclosed microcurvature membrane system may enable a direct measurement of the permeability of the podocyte layer in a non-invasive manner, in order to probe the barrier function at the podocyte slit diaphragm.
The permeability of the microcurvature membrane, without cells, may be investigated using dye, fluorescently labeled molecules, or any molecule whose concentration may be quantified in the chamber solution. Some examples include 1-10 μM of 70 kDa TRITC-dextran or 60 kDa FITC-albumin. The molecule of interest may be placed in the upper transwell chamber and collected in the lower chamber over time, or vice-versa. […] FIG. 12F is a plot of example preliminary results showing the permeability of the membrane surface (also referred to as a “topomembrane”) in different configurations, namely without microcurvature (“flat topomembrane”) or with convex microcurvature (“bubble topomembrane”); with cells cultivated on the surface (“+cells”), before cell cultivation (“no cells”) or after cultivated cells are removed (“cells removed”); and compared to the culture well without any membrane (“transwells”). […]

## CN(C)c1ncnc2c1ncn2[C@@H]1O[C@H](CO)[C@@H](N)[C@H]1O [PAN, Puromycin amino nucleoside]
E11 murine podocytes
  cell membrane area (immunostaining): decreased
  nephrin expression (immunostaining): decreased
[1]
  nephrin gene expression compared to the PAN-free control: moderate downregulation; also recorded: dose-response downregulated behaviour
Podocyte layer
  permeability of cells in response to chemical insult: increasing permeability
